Source: patent publication US8501812B2, “Therapeutic methods for type I diabetes” (University of Massachusetts, priority 2005, dated 2013)

Assays:
JNK2 = target: T1, JNK2 (Homo sapiens, UniProt P45984); test: c-Jun phosphorylation assay with His6-JNK2 and GST-c-Jun(1-79), γ-32P ATP; assay type: biochemical; details: assay consistently shows, despite variability
T1 construct: His6 (N)
Procedure: For example, to 10 μL of 5-amino-anthra(9,1-cd)isothiazol-6-one in 20% DMSO/80% dilution buffer containing of 20 mM HEPES (pH 7.6), 0.1 mM EDTA, 2.5 mM magnesium chloride, 0.004% Triton×100, 2 μg/mL leupeptin, 20 mM β-glycerolphosphate, 0.1 mM sodium vanadate, and 2 mM DTT in water is added 30 μL of 50-200 ng His6-JNK2 in the same dilution buffer. The mixture is pre-incubated for 30 minutes at room temperature. Sixty μL of 10 μg GST-c-Jun(1-79) in assay buffer consisting of 20 mM HEPES (pH 7.6), 50 mM sodium chloride, 0.1 mM EDTA, 24 mM magnesium chloride, 1 mM DTT, 25 mM PNPP, 0.05% Triton×100, 11 μM ATP, and 0.5 μCi γ-32P ATP in water is added and the reaction is allowed to proceed for 1 hour at room temperature. The c-Jun phosphorylation is terminated by addition of 150 μL of 12.5% trichloroacetic acid. After 30 minutes, the precipitate is harvested onto a filter plate, diluted with 50 μL of the scintillation fluid and quantified by a counter. The IC50 values are calculated as the concentration of 5-amino-anthra(9,1-cd)isothiazol-6-one at which the c-Jun phosphorylation is reduced to 50% of the control value. Compounds that inhibit JNK2 preferably have an IC50 value ranging 0.01-10 μM in this assay. 5-Amino-anthra(9,1-cd)isothiazol-6-one has an IC50 according to this assay of 1 μM for JNK2 and 400 nM for JNK3.

[1] = solubility in aqueous media; assay type: physicochemical

T1 sequence (P45984 whole entry): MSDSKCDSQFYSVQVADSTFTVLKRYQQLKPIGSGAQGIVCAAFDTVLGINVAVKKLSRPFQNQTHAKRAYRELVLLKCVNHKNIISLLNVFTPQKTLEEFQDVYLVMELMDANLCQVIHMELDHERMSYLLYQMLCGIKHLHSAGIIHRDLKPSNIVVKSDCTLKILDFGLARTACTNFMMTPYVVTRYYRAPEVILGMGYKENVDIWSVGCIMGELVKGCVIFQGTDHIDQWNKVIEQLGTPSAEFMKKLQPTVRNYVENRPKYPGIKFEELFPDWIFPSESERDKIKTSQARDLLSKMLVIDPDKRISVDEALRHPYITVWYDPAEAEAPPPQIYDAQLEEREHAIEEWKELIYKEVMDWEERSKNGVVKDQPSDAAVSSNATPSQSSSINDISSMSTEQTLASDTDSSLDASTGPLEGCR

selectivity of JNK2 inhibition (JNK2): selectively inhibits JNK2 | solubility in aqueous media [1]: limited solubility
SMILES: Nc1ccc2snc3c2c1C(=O)c1ccccc1-3 [5-amino-anthra(9,1-cd)isothiazol-6-one]
